Earlier results on 4 compounds are cited in patent publication US20230065004A1, “METHOD FOR IMPROVING COLOUR RETENTION OF DYED KERATINOUS MATERIAL, ESPECIALLY HUMAN HAIR” (Henkel AG & Co. KGaA, priority 2019, published 2023).

Structures are written as SMILES.

For this series the following is noted: 25° C.

For `CCN(Cc1cccc(S(=O)(=O)[O-])c1)c1ccc(C(=C2C=CC(=[N+](CC)Cc3cccc(S(=O)(=O)[O-])c3)C=C2)c2ccccc2S(=O)(=O)[O-])cc1.[Na+].[Na+]` [Acid Blue 9], the solubility in water result is recorded as “more than 20 wt. %”.

Turning to `O=S(=O)([O-])c1ccc(N=Nc2c(O)ccc3ccccc23)cc1.[Na+]` [Acid Orange 7, sodium salt of 4-[(2-hydroxy-1-naphthyl)azo]benzene sulphonate], the solubility in water result is listed as “more than 7 g/L”.

Regarding `Nc1cc(S(=O)(=O)[O-])cc2cc(S(=O)(=O)[O-])c(N=Nc3ccccc3)c(O)c12.[Na+].[Na+]` [Acid Red 33, dinatrium salt of 5-amino-4-hydroxy-3-(phenylazo)-naphthalene-2,7-disulphonate], the solubility in water entry is given as “about 2.5 g/L”.

Take `O=C([O-])C1=NN(c2ccc(S(=O)(=O)[O-])cc2)C(=O)C1N=Nc1ccc(S(=O)(=O)[O-])cc1.[Na+].[Na+].[Na+]` (stereo not shown) [Acid Yellow 23, trisodium salt of 4,5-dihydro-5-oxo-1-(4-sulfophenyl)-4-((4-sulfophenyl)azo)-1H-pyrazole-3-carboxylic acid]: the “solubility in water” value is “highly soluble”.
